Data: US20080248134A1, “Oral compositions, use and combinations of N-[2-(dimethylamino)ethyl]-2,6 dimethyl-1-oxo-1,2-dihydrobenzo[b]-1,6-naphthyridine-4-carboxamide and closely related analogues thereof” (Auckland Uniservices Limited, priority 2005, published 2008)
“Also recorded” adds a separate entry of the source. Read-outs that look alike come from different tables or passages of the source.

Legend:
Plasma pharmacokinetics = format: in vivo, mice; conditions: for AUC: read-out: area under the plasma concentration-time profile for the first 8 hours (AUC)
Protocol: The plasma pharmacokinetics of the compound of Formula II, were compared following intravenous, intraperitoneal and oral administration at a dose of 8.9 mg/kg (26 μmol/kg). Mice were terminally anaesthetised at various times up to 8 hours after drug administration and blood was taken for preparation of plasma samples. Plasma concentrations of the compound of Formula II were measured by high performance liquid chromatography-mass spectrophometry. The results are shown in FIG. 6, the vertical bars showing the standard deviation of the mean values from three mice per time point.
As expected from the rate of gastric emptying, the initial increase in plasma and liver drug concentrations occur later after oral administration than they do after intravenous or intraperitoneal administration, but the plasma and tissue half-lives are similar.

colon 38 tumours = assay: Murine colon 38 tumour response; format: in vivo; conditions: single oral dose (8.9 mg/kg)
Description: The murine colon-38 carcinoma is a transplantable tumour that has been used extensively in drug development programmes to determine the activity of many different drugs (Goldin A et al. Current results of the screening program at the Division of Cancer Treatment, National Cancer Institute. European Journal of Cancer. 1981. 17(2):129-142). The tumour is implanted subcutaneously as 1-mm^3 fragments and allowed to grow (8 days) to a tumour of approximately 3 mm in diameter before administration of test drugs.

HCT116p53+ = assay: In vitro cell proliferation assay, continuous drug exposure; format: cell-based; conditions: Homo sapiens, continuous drug exposure 3-5 days
Description: (§1) The results with the JLA and JLD lines, which have reduced topoisomerase II content as compared to the parental Jurkat line, indicate that the IC50 value of the compound is increased with decreased topoisomerase content. This is also the case for etoposide, amsacrine, DACA and doxorubicin.

JLD = assay: as above; format: cell-based; conditions: Homo sapiens; JLD (reduced topoisomerase II), continuous drug exposure 3-5 days
Description: as §1

Jurkat = assay: as above; format: cell-based; conditions: Homo sapiens, continuous drug exposure 3-5 days
Description: as §1

HCT116p53− = assay: as above; format: cell-based; conditions: Homo sapiens, continuous drug exposure 3-5 days
Description: as §1

JLA = assay: as above; format: cell-based; conditions: Homo sapiens; JLA (reduced topoisomerase II), continuous drug exposure 3-5 days
Description: as §1

NZMp1 = assay: Human tumour xenograft; format: in vivo; set-up: key to Activity: Active: NCI Criterion for activity tumour volume T/C ≦ 40%; Inactive: NCI Criterion for activity tumour volume T/C ≦ 40%; conditions: NZMp1, Melanoma
Protocol: (§2) The compound of Formula II was evaluated in a number of xenografts using cell lines derived from cervical, endometrial, lung and colon carcinomas, leukaemia and melanoma (Table 3). These studies indicate that the compound according to the present invention has significant activity in xenografts.

NZM4 = assay: Human tumour xenograft; format: in vivo; set-up: key to Activity: Active: NCI Criterion for activity tumour volume T/C ≦ 40%; Inactive: NCI Criterion for activity tumour volume T/C ≦ 40%; conditions: NZM4, Melanoma
Protocol: as §2

H460 = assay: Human tumour xenograft; format: in vivo; set-up: key to Activity: Active: NCI Criterion for activity tumour volume T/C ≦ 40%; Inactive: NCI Criterion for activity tumour volume T/C ≦ 40%; conditions: H460, Lung
Protocol: as §2

[1] = system: melanoma tissue taken from a patient; assay: Response of a melanoma taken directly from a cancer patient, xenograft in immunodeficient mice; format: in vivo, human; conditions: two doses of 5.9 mg/kg, 7 days apart
Protocol: Metastatic melanoma is particularly resistant to current chemotherapy. Melanoma tissue taken from a patient at surgery was implanted subcutaneously in immunodeficient mice. After three months, the tumour in one animal was excised and transferred to further immunodeficient mice. The tumours were grown to a diameter of approximately 4 mm before treatment and the compound of Formula II was administered in two doses of 5.9 mg/kg, 7 days apart.

[2] = intraperitoneal administration, 8.9 mg/kg, mice
[3] = intravenous administration, 8.9 mg/kg, mice

Compound: Cc1cccc2cc3c(=O)n(C)cc(C(=O)NCCN(C)C)c3nc12 [Formula II, N-[2-(dimethylamino)ethyl]-2,6 dimethyl-1-oxo-1,2-dihydrobenzo[b]-1,6-naphthyridine-4-carboxamide]
- time-concentration profiles (plasma and liver) for the different routes of administration (Plasma pharmacokinetics; i.p., i.v. and p.o., non tumour bearing mice): quite comparable
- maximum plasma concentration (Plasma pharmacokinetics; [2]): 0.57 µM
- time at which maximum plasma concentration achieved (Plasma pharmacokinetics; [2]): 0.5 h
- maximum plasma concentration (Plasma pharmacokinetics; [3]): 1.24 µM
- time at which maximum plasma concentration achieved (Plasma pharmacokinetics; [3]): 0.08 h
- AUC (Plasma pharmacokinetics; mouse, plasma, ip, intraperitoneal administration, 8.9 mg/kg, mice): 1.63 µM·h
- bioavailability (Plasma pharmacokinetics; mouse, plasma, oral, relative to intraperitoneal administration, 8.9 mg/kg, mice, read-out: bioavailability following oral administration): 63%
- half-life (Plasma pharmacokinetics; mouse, plasma, all three routes of administration (i.v., i.p., oral), 8.9 mg/kg, mice, read-out: terminal plasma half life (converted)): ~3.5 h
- AUC (Plasma pharmacokinetics; mouse, plasma, intravenous administration, 8.9 mg/kg, mice): 1.99 µM·h
- AUC (Plasma pharmacokinetics; mouse, plasma, oral administration, 8.9 mg/kg, mice): 1.03 µM·h
- maximum plasma concentration (Plasma pharmacokinetics; oral administration, 8.9 mg/kg (26 μmol/kg), mice): 0.27 µM
- time at which maximum plasma concentration achieved (Plasma pharmacokinetics; oral administration, 8.9 mg/kg, mice): 2 h
- response of colon 38 tumours (colon 38 tumours): complete regression; also recorded: single dose cures
- IC50 (HCT116p53+): 8.6 nM
- IC50 (JLD): 53 nM
- IC50 (Jurkat): 6.7 nM
- IC50 (HCT116p53−): 11 nM
- IC50 (JLA): 38 nM
- Activity (NZMp1): Active
- % control (NZMp1; P53 not known, tumour volume T/C): <10%
- Activity (NZM4): Inactive
- % control (NZM4; P53 Mutant, tumour volume T/C): 90%
- Activity (H460): Active
- % control (H460; P53 W.T., tumour volume T/C): 38%
- melanoma growth [1]: strong inhibition of melanoma growth
